Experimental data: patent US10206911B2, “Androgen receptor variants and methods for making and using” (MEMORIAL SLOAN-KETTERING CANCER CENTER, priority 2012, dated 2019)
Changes are numbered by the printed parent chain. Entries after “also recorded” stand apart in the source; their conditions may differ.

Assays:
[1] = test system: AR mutants isolated from drug resistant CWR22Pc cells; assay: EGFP reporter assay and qRT-PCR, LNCaP/Pb.PSE.EGFP cells; type: cell-based, human; conditions: 10 μM antiandrogen; variable degrees, gene-specific differences
[2] = test system: AR mutants isolated from drug resistant LNCaP/AR xenograft tumors; assay: Luciferase reporter assay of AR activity in androgen depleted media, CV1 cells; type: cell-based, human; conditions: 10 μm antiandrogen
[3] = test system: AR mutants isolated from drug resistant LNCaP/AR xenograft tumors; assay: EGFP reporter assay of AR activity, LNCaP/Pb.PSE.EGFP cells; type: cell-based, human; conditions: androgen containing media, 10 μM antiandrogen
Method: Additionally, EGFP reporter assays of AR activity in cells expressing the indicated AR mutants were performed and the data are presented in FIG. 21A and FIG. 21B.

AR F876L = target: T1, AR F876L (Homo sapiens, UniProt P10275, DEL79-80/DUP473-473/F877L); assay: EGFP reporter assay of AR activity, LNCaP-Pb.PSE.EGFP cells, flow cytometry; type: cell-based; conditions: 10 μM, 4 days of treatment
T1 construct: expressed in transfected cells
T1 sequence (P10275 with tags, fused parts or gaps DEL79-80/DUP473-473/F877L): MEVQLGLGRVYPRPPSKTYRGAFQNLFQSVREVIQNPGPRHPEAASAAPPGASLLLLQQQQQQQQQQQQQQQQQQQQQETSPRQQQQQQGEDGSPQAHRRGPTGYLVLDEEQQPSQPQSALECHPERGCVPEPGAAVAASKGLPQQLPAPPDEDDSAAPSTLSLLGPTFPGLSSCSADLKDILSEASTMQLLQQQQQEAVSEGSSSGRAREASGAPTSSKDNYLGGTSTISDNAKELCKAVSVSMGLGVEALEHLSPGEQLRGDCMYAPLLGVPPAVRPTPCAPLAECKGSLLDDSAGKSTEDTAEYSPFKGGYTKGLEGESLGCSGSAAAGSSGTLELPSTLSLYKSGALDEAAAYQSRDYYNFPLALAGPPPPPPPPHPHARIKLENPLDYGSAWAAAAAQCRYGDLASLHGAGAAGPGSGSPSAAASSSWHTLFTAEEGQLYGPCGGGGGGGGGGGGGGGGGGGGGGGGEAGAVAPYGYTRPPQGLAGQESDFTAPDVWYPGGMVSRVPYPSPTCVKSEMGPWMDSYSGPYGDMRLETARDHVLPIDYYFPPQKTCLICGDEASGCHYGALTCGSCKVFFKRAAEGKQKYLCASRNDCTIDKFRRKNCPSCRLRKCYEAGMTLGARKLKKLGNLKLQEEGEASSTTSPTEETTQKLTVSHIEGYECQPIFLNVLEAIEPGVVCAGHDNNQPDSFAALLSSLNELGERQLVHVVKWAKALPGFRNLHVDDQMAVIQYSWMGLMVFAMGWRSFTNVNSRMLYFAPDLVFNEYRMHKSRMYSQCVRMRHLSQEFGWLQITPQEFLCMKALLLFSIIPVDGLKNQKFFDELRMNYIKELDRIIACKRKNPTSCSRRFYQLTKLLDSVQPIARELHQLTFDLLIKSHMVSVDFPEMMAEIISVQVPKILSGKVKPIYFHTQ
Excerpt: (§1) This clone was used for all flow cytometry assays and for the FACS-based resistance screens.

AR WT = target: T2, AR WT (Homo sapiens, UniProt P10275, DEL79-80/DUP473-473); assay: as above; type: cell-based; conditions: 10 μM, 4 days of treatment
T2 construct: expressed in transfected cells; host or cells: LNCaP-Pb.PSE.EGFP (pantropic retroviral infection, blasticidin selection)
T2 sequence (P10275 with tags, fused parts or gaps DEL79-80/DUP473-473): T1 sequence (P10275 with tags, fused parts or gaps DEL79-80/DUP473-473/F877L) with L876F
Excerpt: as §1

[4] = test system: DU145 (an AR null human prostate cancer cell line); assay: DU145 cell viability (CellTiterGLO); type: cell-based; conditions: 10 μM, full serum containing media
Method: DU145 cells were cultured in full serum containing media with 10 uM of the indicated antiandrogens. CellTiterGLO assay was performed on days 0, 3, and 6 to determine cell viability. RLU=relative light units.

[5] = test system: VCaP cells overexpressing AR F876L; assay: VCaP growth assay (CellTiter-GLO); type: cell-based, human; conditions: full-serum containing media, 10 μM
[6] = test system: VCaP cells overexpressing AR WT; assay: VCaP growth assay (CellTiter-GLO); type: cell-based, human; conditions: full-serum containing media, 10 μM

CNC(=O)c1ccc(N2C(=S)N(c3cnc(C#N)c(C(F)(F)F)c3)C(=O)C23CCC3)cc1F [ARN-509] was tested, and the “Sensitivity of AR mutants, EGFP reporter assay & qRT-PCR” value [1] was “still remained sensitive”, the “Agonism on AR mutants, luciferase reporter” value [2] was “none of the mutants conferred agonism” and the “Sensitivity of AR mutants, EGFP reporter” value [3] was “still remained sensitive”.
CNC(=O)c1ccc(N2CC(=O)N(c3ccc(C#N)c(C(F)(F)F)c3)C2=S)cc1F [DR107, 4-(3-(4-cyano-3-(trifluoromethyl)phenyl)-4-oxo-2-thioxoimidazolidin-1-yl)-2-fluoro-N-methylbenzamide] was tested, and the “Effect on transcriptional activity of AR F876L in EGFP reporter assay (agonism or antagonism)” value (AR F876L) was “agonist” and the “Effect on transcriptional activity of AR WT in EGFP reporter assay (agonism or antagonism)” value (AR WT) was “agonist”.
CNC(=O)c1ccc(N2C(=S)N(c3cnc(C#N)c(C(F)(F)F)c3)C(=O)C23CCCC(C)(C)C3)cc1F (racemic) [(±)-DR106, 4-(3-(6-cyano-5-(trifluoromethyl)pyridin-3-yl)-7,7-dimethyl-4-oxo-2-thioxo-1,3-diazaspiro[4.5]decan-1-yl)-2-fluoro-N-methylbenzamide] was tested, and the “Effect on transcriptional activity of AR F876L in EGFP reporter assay (agonism or antagonism)” value (AR F876L) was “effectively antagonized; also recorded: AR F876L inhibition” and the “Effect on transcriptional activity of AR WT in EGFP reporter assay (agonism or antagonism)” value (AR WT) was “effectively antagonized”.
CNC(=O)c1ccc(N2C(=S)N(c3ccc(C#N)c(C(F)(F)F)c3)C(=O)C23CCC(C)(C)CC3)cc1F [DR104, 4-(3-(4-cyano-3-(trifluoromethyl)phenyl)-8,8-dimethyl-4-oxo-2-thioxo-1,3-diazaspiro[4.5]decan-1-yl)-2-fluoro-N-methylbenzamide] was tested, and the “Proliferation of DU145 cells” value [4] was “no significant growth inhibition”, the “Effect on transcriptional activity of AR F876L in EGFP reporter assay (agonism or antagonism)” value (AR F876L) was “modest agonist” and the “Effect on transcriptional activity of AR WT in EGFP reporter assay (agonism or antagonism)” value (AR WT) was “antagonist”.
In the case of CNC(=O)c1ccc(N2C(=S)N(c3ccc(C#N)c(C(F)(F)F)c3)C(=O)C23CCCCC3)cc1F [DR101, 4-(3-(4-cyano-3-(trifluoromethyl)phenyl)-4-oxo-2-thioxo-1,3-diazaspiro[4.5]decan-1-yl)-2-fluoro-N-methylbenzamide], the “Growth of VCaP cells overexpressing AR F876L” value [5] is reported as “did not inhibit cell growth”, the “Growth of VCaP cells, AR WT” value [6] is reported as “only inhibit the growth of VCaP/AR WT” and the “Effect on transcriptional activity of AR F876L in EGFP reporter assay (agonism or antagonism)” value (AR F876L) is reported as “agonist”.
For CNC(=O)c1ccc(N2C(=S)N(c3ccc(C#N)c(C(F)(F)F)c3)C(=O)C23CC(C)(C)CC(C)(C)C3)cc1F [DR105, 4-(3-(4-cyano-3-(trifluoromethyl)phenyl)-7,7,9,9-tetramethyl-4-oxo-2-thioxo-1,3-diazaspiro[4.5]decan-1-yl)-2-fluoro-N-methylbenzamide], the “Effect on transcriptional activity of AR F876L in EGFP reporter assay (agonism or antagonism)” value (AR F876L) was “effectively antagonized; also recorded: inhibited” and the “Effect on transcriptional activity of AR WT in EGFP reporter assay (agonism or antagonism)” value (AR WT) was “effectively antagonized; also recorded: inhibited”.
